Results reported in patent US8586505B2 (SDS Biotech K. K., priority 2009, dated 2013).

Tests used:
Type in all cases: in vivo
Phytophthora infestans = assay: whole plant or invertebrate; details: in Solanum lycopersicum, 96 h, read-out: Determination of control effect (preventive value)
Sphaerotheca fuliginea = assay: Test of examining control effect on Sphaerotheca fuliginea (potted cucumber plants); details: Podosphaera fuliginea, 336 h; 10% wettable powder adjusted to 125 ppm, 15 ml/pot sprayed on potted cucumber plants one day before spray inoculation; assessed after 14 days in greenhouse; read-out: Determination of control effect (preventive value) on Sphaerotheca fuliginea
Protocol: (§1) Calculation of Preventive Value: Preventive value={(untreated lesion area rate−treated lesion area rate)/untreated lesion area rate}×100
(§2) Using the thus calculated preventive value, the control effect of each compound was determined in accordance with the following standards.
(§3) High control effect: 100%≧preventive value≧60%
(§4) Low control effect: 60%>preventive value≧0%
Using a spray gun, an agent solution prepared by adjusting a 10% wettable powder of each sample compound to 125 ppm (hereinafter referred to as a “sample agent solution”) was sprayed to potted cucumber plants (variety: Sagamihanjiro, 2nd leave stage) in a concentration of 15 ml/pot. One day after the spraying, a conidial suspension of Sphaerotheca fuliginea (conidial concentration: 1.0×10^5 cells/ml) was applied to the plants by spray inoculation. The plants were left in a greenhouse for 14 days, so that they were fully infected with the aforementioned disease. Thereafter, the disease level on each leaf was compared with that on an untreated leaf, and the control effect of each compound was determined in the same manner as in Example 3(1).

[1] = test system: Pseudoperonospora cubensis; assay: Test of examining control effect on Pseudoperonospora cubensis (potted cucumber plants); details: 96 h, 10% wettable powder adjusted to 125 ppm, 15 ml/pot sprayed on potted cucumber plants one day before spray inoculation, assessed after 1 day wet chamber and 3 days greenhouse, read-out: Determination of control effect (preventive value) on Pseudoperonospora cubensis
Protocol: as §1, §2, §3, §4
Using a spray gun, an agent solution prepared by adjusting a 10% wettable powder of each sample compound to 125 ppm (hereinafter referred to as a “sample agent solution”) was sprayed to potted cucumber plants (variety: Sagamihanjiro, 2.5 leave stage) in a concentration of 15 ml/pot. One day after the spraying, a conidial suspension of Pseudoperonospora cubensis (conidial concentration: 1.0×10^4 cells/ml) was applied to the plants by spray inoculation. After completion of the inoculation, the plants were left at 21° C. under wet chamber conditions for 1 day, and were then left in a greenhouse for 3 days, so that they were fully infected with the aforementioned disease. Thereafter, the disease level on each leaf was compared with that on an untreated leaf, and the control effect of each compound was determined in the same manner as in Example 3(1).

SMILES	pest or weed control at 125 ppm (Phytophthora infestans)	pest or weed control at 125 µg/mL (Sphaerotheca fuliginea)	pest or weed control at 125 µg/mL [1]
CNC(=O)c1ccc(C#CCCNc2ncnc3ccccc23)cc1 [compound 126]	60 to 100%	0 to 60%	60 to 100%
O=[N+]([O-])c1c(Cl)ncnc1NCCC#Cc1ccccc1C(F)(F)F [compound 370]	0 to 60%	0 to 60%	0 to 60%
O=Cc1nc(C#CCCNc2ncnc3sccc23)cs1 [compound 69]	60 to 100%	0 to 60%	60 to 100%
COCc1ccccc1C#CCCNc1ncnc2c(OC)cccc12 [compound 328]	0 to 60%	60 to 100%	60 to 100%
COCOc1ccc(C#CCCNc2ncnc3ccccc23)cc1 [compound 121]	60 to 100%	60 to 100%	60 to 100%
FC(F)(F)c1ccccc1C#CCCNc1ncnc(Cl)c1Br [compound 367]	0 to 60%	60 to 100%	60 to 100%
CSc1ccc(C#CCCNc2ncnc3ccccc23)cc1 [compound 117]	60 to 100%	60 to 100%	60 to 100%
C(#Cc1ccccn1)CCNc1ncnc2sccc12 [compound 55]	60 to 100%		60 to 100%
CC(CC#Cc1ccccc1C(F)(F)F)Nc1ncnc2c(F)cccc12 (centres unmarked) [compound 343]	60 to 100%	60 to 100%	60 to 100%
COCc1ccccc1C#CCCNc1ncnc2sccc12 [compound 45]	60 to 100%		60 to 100%
CN(c1ccc(C#CCCNc2ncnc3ccccc23)cc1)S(C)(=O)=O [compound 124]	0 to 60%	0 to 60%	60 to 100%
FC(F)(F)Oc1ccc(C#CCCNc2ncnc3sccc23)cc1 [compound 34]	60 to 100%		60 to 100%
CC(CC#Cc1ccccc1OC(C)C)Nc1ncnc2sccc12 (centres unmarked) [compound 242]	0 to 60%	60 to 100%	60 to 100%
C(#CC1CCCCC1)CCNc1ncnc2ccccc12 [compound 91]	60 to 100%	60 to 100%	60 to 100%
CC[Si](C#CCCNc1ncnc2sccc12)(CC)CC [compound 3]	0 to 60%	60 to 100%	60 to 100%
CCC(CC#Cc1ccc(F)cc1C(F)(F)F)Nc1ncnc2ccccc12 (centres unmarked) [compound 295]	0 to 60%	60 to 100%	60 to 100%
CC(CC#Cc1ccc(F)cc1)Nc1ncnc2sccc12 (centres unmarked) [compound 230]	60 to 100%	60 to 100%	60 to 100%
COCc1ccsc1C#CCCNc1ncnc2ccccc12 [compound 207]	60 to 100%	60 to 100%	60 to 100%
CC(CC#Cc1ccc(Cl)cc1C(F)(F)F)Nc1ncnc(C(F)(F)F)c1Cl (centres unmarked) [compound 388]	0 to 60%	60 to 100%	60 to 100%
COc1ccccc1Oc1nc(C#CCCNc2ncnc3ccccc23)cs1 [compound 215]	60 to 100%	60 to 100%	60 to 100%
C(#Cc1ccc2ccccc2n1)CCNc1ncnc2ccccc12 [compound 188]	0 to 60%	0 to 60%	60 to 100%
COCc1ccc(Cl)cc1C#CCCNc1ncnc2ccccc12 [compound 143]	60 to 100%	60 to 100%	60 to 100%
COCc1ccccc1C#CCCNc1ncnc2c(C)csc12 [compound 50]	60 to 100%		60 to 100%
Cc1ncnc(NCCC#Cc2ccc(Cl)cc2C(F)(F)F)c1Cl [compound 360]	0 to 60%	60 to 100%	60 to 100%
CC(C)Oc1ccccc1C#CCCNc1ncnc2ccccc12 [compound 119]	60 to 100%	60 to 100%	60 to 100%
COC(=O)c1ccc(C#CCCNc2ncnc3sccc23)cc1 [compound 31]	0 to 60%	0 to 60%	60 to 100%

SMILES	pest or weed control at 125 ppm (Phytophthora infestans)	pest or weed control at 125 µg/mL (Sphaerotheca fuliginea)	pest or weed control at 125 µg/mL [1]
COc1cc(C#CCCNc2ncnc3ccccc23)ccn1 [compound 199]	60 to 100%	60 to 100%	60 to 100%
FC(F)(F)Oc1cccc(C#CCCNc2ncnc3sccc23)c1 [compound 33]	60 to 100%		60 to 100%
CC(CC#Cc1ccccc1S(C)(=O)=O)Nc1ncnc2sccc12 (centres unmarked) [compound 237]	60 to 100%	60 to 100%	60 to 100%
CC(CC#Cc1ccc(Cl)c(C(F)(F)F)c1)Nc1ncnc2ccccc12 (centres unmarked) [compound 284]	0 to 60%	60 to 100%	60 to 100%
Cc1ccc(C#CCC(C)Nc2ncnc3ccccc23)cc1 (centres unmarked) [compound 279]	60 to 100%	60 to 100%	60 to 100%
Cc1ccc(C#CCCNc2ncnc3ccccc23)s1 [compound 206]	60 to 100%	0 to 60%	60 to 100%
CC(CC#Cc1cccc(C(F)(F)F)c1)Nc1ncnc2sccc12 (centres unmarked) [compound 234]	0 to 60%	60 to 100%	60 to 100%
CS(=O)(=O)Cc1ccccc1C#CCCNc1ncnc2ccccc12 [compound 162]	0 to 60%	0 to 60%	60 to 100%
OCc1ccccc1C#CCCNc1ncnc2sccc12 [compound 44]	60 to 100%		60 to 100%
N#Cc1ccccc1C#CCCNc1ncnc2sccc12 [compound 35]	60 to 100%		60 to 100%
Cc1ccc(C#CCC(C)Nc2ncnc3sccc23)c(Cl)c1 (centres unmarked) [compound 255]	60 to 100%	60 to 100%	
CC(CC#Cc1c(Cl)cc(F)cc1Cl)Nc1ncnc2sccc12 (centres unmarked) [compound 261]		60 to 100%	60 to 100%
C(#Cc1cccs1)CCNc1ncnc2sccc12 [compound 53]	0 to 60%		60 to 100%
O=Cc1ccccc1C#CCCNc1ncnc2sccc12 [compound 48]	60 to 100%		60 to 100%
COCc1ccccc1C#CCCNc1ncnc2scc(C)c12 [compound 51]	60 to 100%		60 to 100%
C(#Cc1ccoc1)CCNc1ncnc2sccc12 [compound 52]	0 to 60%		60 to 100%
N#Cc1cccc(C#CCCNc2ncnc3sccc23)c1 [compound 36]	60 to 100%		60 to 100%
FC(F)(F)Oc1ccccc1C#CCCNc1ncnc2sccc12 [compound 32]	60 to 100%		60 to 100%
FCc1ccccc1C#CCCNc1ncnc2sccc12 [compound 47]	60 to 100%		60 to 100%
CCOCc1ccccc1C#CCCNc1ncnc2sccc12 [compound 46]	60 to 100%		60 to 100%
Cc1cc(C)c(C#CCC(C)Nc2ncnc3sccc23)c(C)c1 (centres unmarked) [compound 263]		60 to 100%	60 to 100%
N#Cc1ccc(C#CCCNc2ncnc3sccc23)cc1 [compound 37]	60 to 100%		60 to 100%
CC(=O)Nc1ccccc1C#CCCNc1ncnc2ccccc12 [compound 160]	0 to 60%		0 to 60%
COCc1ccccc1C#CCCNc1ncnc2ccsc12 [compound 49]	60 to 100%		60 to 100%
C(#Cc1ccsc1)CCNc1ncnc2sccc12 [compound 54]	0 to 60%		60 to 100%
